Assay [1] has as its target 5-HT2C (Homo sapiens (Human), UniProt P28335). Description: 5-HT2C [125I]DOI binding. The settings on record: Table 3a; read-out: 5-HT2C [125I]DOI Ki ± SEM.
In assay [2] the test system is Male Long-Evans rats. Description: Hot plate test of oxycodone-induced antinociceptive response in rats. The format is in vivo, rat. The protocol: Nociceptive tests were performed using a hot plate device (Model 39, IITC Life Science Inc., Woodland Hills, Calif., USA). The rat was put inside a transparent cage on the hot plate (52±0.2° C.). When thermal nociceptive signs such as licking, stomping the hind paw, or jumping from the plate appeared, the rat was immediately removed from the cage. […] The cut-off time for the test was 60 s to avoid tissue damage.
These experiments involved 8 groups of rats (n=8-9/group) in 2 series of repeated testing: 4 groups were used to test the effects of compound (±)-29 pretreatment on the time course of antinociception induced by oxycodone at a single dose, and another 4 groups were used to test the effects of compound (±)-29 pretreatment on the antinociception induced by various oxycodone doses. Each rat was first habituated to the testing environment for 1 h, followed by placement on the hot plate without treatment to obtain baseline response latencies. The groups in the time course test received baseline testing. Then, group 1 was pretreated with vehicle, and the other 3 groups were pretreated with a dose of compound (±)-29 (5, 15 or 25 mg/kg, i.p.). Fifteen min following the pretreatment, each rat was challenged with a saline injection (1 ml/kg) and, 30 min later, tested for the second time on the hot plate. On the next day, each group received the same pretreatment as on day 1, but challenged with oxycodone (2 mg/kg, i.p.), and each rat was then tested again at 30-, 60- and 120-min following oxycodone challenge. […] Data were calculated as % of maximum percentage effect (% MPE) using the formula: (treatment value−basal value)/(cutoff value−basal value)×100.
Methods: Compound (±)-29 was administered 15 minutes before saline or oxycodone challenge at 5 mg/kg, 15 mg/kg, and 25 mg/kg. […] The rat was then immediately removed from the hot plate and the time latency was recorded.
On the technique in general: In hot-plate and tail-flick tests a longer latency is read as antinociception.

Experimental findings from patent US11337971B2, “Dopamine D3 receptor selective antagonists/partial agonists and uses thereof” (THE UNITED STATES OF AMERICA, AS REPRESENTED BY THE …, priority 2018, dated 2022) are described below.

Entries after “also recorded” stand apart in the source; their conditions may differ.

Chain of 5-HT2C (P28335 33-458, species assumed): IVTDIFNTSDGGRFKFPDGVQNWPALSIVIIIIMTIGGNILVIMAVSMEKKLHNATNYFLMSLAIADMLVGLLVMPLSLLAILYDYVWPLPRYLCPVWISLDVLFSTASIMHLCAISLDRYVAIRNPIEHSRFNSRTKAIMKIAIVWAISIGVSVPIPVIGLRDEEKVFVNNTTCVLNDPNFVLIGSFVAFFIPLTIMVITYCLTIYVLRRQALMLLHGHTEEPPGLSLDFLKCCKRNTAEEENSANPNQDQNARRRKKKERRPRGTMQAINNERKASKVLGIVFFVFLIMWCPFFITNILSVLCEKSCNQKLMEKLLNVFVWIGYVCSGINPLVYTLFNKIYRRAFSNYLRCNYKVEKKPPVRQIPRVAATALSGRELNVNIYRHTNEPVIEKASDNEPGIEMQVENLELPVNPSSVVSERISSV

Regarding `CCc1cc(Cl)c(OC)c(N2CCN(CC(O)CCNC(=O)c3cc4ccccc4[nH]3)CC2)c1` (racemic) [Compound 29, N-(4-(4-(3-chloro-5-ethyl-2-methoxyphenyl)piperazin-1-yl)-3-hydroxybutyl)-1H-indole-2-carboxamide], the Ki – broadly, the equilibrium dissociation constant of an inhibitor or competing ligand from its target – in assay [1] worked out at 2190 ± 460 nM. For the same compound, in assay [2] (5-25 mg/kg i.p. pretreatment, oxycodone 0.5-4 mg/kg, effect at 25 mg/kg), the “effect of pretreatment on oxycodone antinociception (% MPE), hot plate” value is “significant elevation of MPE %; also recorded: potentiated the antinociceptive effects of oxycodone; also recorded: produced a leftward shift in the dose-response curve of oxycodone; also recorded: significantly potentiated oxycodone's effect”. For the same compound, in assay [2] (Example 6, 5, 15, 25 mg/kg, 15 minutes before challenge), the “thermal response 30 minutes following saline or oxycodone (2 mg/kg, i.p.) challenge” value is on record as “no significant effects on animal's thermal response”.
